# Where “and” joins values, the source holds several entries; their conditions need not be identical. Equal entries are not always repeated.
# Legend:
# Assay in all cases: biochemical
# Set-up in all cases: endogenous in cells; host or cells: K562 cell extract; species or system K562 (extract); replicate k of n = 2 (each experiment ID is one independent experiment; two experiment IDs per compound)
# Settings in all cases: read-out: KDapp
# RPS6KA5 = RPS6KA5 (Homo sapiens, UniProt O75582)
# MAP4K2 = target: T1, MAP4K2 (Homo sapiens, UniProt Q12851)
# T1 sequence (Q12851 1-820): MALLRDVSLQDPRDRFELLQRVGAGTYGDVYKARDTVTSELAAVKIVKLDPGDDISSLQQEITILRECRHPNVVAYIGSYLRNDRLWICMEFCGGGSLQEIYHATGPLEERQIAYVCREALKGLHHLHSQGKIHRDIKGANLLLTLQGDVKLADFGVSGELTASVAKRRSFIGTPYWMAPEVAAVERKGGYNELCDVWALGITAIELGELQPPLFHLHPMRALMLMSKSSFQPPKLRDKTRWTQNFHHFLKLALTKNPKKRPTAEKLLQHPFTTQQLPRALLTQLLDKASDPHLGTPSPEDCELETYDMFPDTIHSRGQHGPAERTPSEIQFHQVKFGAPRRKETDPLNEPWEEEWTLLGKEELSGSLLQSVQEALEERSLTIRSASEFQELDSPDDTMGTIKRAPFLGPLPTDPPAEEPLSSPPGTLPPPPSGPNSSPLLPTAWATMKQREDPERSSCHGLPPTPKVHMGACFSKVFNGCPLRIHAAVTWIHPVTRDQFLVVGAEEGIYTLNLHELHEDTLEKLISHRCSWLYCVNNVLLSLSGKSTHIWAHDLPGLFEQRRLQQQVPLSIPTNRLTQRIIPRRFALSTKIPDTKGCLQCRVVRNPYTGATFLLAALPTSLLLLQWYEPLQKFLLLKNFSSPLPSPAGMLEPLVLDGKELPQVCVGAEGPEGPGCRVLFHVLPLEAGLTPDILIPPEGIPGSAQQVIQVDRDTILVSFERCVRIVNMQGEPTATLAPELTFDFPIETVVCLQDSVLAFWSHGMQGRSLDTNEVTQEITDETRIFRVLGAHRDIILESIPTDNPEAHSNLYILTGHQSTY
# STK38 = STK38 (Homo sapiens, UniProt Q15208)
# PIP4K2C = target: T2, PIP4K2C (Homo sapiens, UniProt Q8TBX8)
# T2 sequence (Q8TBX8 1-421): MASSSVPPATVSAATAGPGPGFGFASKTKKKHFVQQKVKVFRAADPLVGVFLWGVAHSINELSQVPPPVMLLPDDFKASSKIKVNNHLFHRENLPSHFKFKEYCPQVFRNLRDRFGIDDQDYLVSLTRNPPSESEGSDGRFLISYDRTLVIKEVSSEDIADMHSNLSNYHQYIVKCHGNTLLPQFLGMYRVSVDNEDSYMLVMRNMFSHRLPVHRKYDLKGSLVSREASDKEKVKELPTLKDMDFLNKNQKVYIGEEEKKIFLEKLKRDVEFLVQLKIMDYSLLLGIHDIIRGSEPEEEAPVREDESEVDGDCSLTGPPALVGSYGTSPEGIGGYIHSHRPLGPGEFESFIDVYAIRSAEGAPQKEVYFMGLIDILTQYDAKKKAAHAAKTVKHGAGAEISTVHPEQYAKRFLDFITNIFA
# TAOK3 = target: T3, TAOK3 (Homo sapiens, UniProt Q9H2K8)
# T3 sequence (Q9H2K8 1-898): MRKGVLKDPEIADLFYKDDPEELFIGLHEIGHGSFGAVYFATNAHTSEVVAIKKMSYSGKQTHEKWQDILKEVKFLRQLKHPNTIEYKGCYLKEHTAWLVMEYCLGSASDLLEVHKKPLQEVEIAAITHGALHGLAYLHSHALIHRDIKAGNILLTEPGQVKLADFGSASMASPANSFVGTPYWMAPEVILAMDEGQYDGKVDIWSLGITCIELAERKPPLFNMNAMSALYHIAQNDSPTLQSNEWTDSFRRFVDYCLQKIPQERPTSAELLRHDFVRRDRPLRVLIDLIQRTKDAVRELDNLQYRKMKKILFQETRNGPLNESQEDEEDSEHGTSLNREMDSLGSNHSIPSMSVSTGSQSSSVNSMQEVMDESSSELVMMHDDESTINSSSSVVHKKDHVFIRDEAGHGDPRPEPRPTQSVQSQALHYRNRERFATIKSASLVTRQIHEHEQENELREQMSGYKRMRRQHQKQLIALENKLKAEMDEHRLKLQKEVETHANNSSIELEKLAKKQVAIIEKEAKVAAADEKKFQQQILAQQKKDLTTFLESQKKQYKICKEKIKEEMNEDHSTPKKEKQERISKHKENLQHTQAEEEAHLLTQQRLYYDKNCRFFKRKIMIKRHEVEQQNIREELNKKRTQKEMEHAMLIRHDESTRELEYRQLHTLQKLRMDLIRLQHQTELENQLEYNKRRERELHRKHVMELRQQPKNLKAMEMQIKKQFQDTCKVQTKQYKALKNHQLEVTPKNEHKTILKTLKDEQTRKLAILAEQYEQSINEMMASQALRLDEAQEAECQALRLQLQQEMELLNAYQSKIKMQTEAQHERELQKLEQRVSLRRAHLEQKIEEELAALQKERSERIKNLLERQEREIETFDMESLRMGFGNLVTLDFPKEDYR
# CDK10 = CDK10 (Homo sapiens, UniProt Q15131)
# Chain of CDK10 (Q15131 whole entry): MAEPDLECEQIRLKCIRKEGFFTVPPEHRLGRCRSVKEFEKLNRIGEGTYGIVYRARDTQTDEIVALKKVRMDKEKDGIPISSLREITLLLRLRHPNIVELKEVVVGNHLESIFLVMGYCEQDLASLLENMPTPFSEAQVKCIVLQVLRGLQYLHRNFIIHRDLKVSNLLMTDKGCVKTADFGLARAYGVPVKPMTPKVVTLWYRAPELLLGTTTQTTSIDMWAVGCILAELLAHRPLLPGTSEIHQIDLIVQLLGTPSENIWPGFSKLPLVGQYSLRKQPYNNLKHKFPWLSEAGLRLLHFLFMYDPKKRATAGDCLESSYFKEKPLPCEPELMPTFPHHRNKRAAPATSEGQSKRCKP
# Chain of STK38 (Q15208 whole entry): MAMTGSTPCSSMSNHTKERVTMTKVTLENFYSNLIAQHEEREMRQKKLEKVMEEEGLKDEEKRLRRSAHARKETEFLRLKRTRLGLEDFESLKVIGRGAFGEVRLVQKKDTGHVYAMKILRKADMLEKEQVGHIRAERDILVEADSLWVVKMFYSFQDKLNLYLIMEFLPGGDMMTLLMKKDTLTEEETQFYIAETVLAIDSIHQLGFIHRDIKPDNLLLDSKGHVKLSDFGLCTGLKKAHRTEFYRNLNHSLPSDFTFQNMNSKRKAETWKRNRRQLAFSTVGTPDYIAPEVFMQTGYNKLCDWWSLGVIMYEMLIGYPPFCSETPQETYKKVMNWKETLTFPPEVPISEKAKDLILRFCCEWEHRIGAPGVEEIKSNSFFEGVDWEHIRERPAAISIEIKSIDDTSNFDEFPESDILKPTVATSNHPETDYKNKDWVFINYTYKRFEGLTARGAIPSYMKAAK
# Chain of RPS6KA5 (O75582 whole entry): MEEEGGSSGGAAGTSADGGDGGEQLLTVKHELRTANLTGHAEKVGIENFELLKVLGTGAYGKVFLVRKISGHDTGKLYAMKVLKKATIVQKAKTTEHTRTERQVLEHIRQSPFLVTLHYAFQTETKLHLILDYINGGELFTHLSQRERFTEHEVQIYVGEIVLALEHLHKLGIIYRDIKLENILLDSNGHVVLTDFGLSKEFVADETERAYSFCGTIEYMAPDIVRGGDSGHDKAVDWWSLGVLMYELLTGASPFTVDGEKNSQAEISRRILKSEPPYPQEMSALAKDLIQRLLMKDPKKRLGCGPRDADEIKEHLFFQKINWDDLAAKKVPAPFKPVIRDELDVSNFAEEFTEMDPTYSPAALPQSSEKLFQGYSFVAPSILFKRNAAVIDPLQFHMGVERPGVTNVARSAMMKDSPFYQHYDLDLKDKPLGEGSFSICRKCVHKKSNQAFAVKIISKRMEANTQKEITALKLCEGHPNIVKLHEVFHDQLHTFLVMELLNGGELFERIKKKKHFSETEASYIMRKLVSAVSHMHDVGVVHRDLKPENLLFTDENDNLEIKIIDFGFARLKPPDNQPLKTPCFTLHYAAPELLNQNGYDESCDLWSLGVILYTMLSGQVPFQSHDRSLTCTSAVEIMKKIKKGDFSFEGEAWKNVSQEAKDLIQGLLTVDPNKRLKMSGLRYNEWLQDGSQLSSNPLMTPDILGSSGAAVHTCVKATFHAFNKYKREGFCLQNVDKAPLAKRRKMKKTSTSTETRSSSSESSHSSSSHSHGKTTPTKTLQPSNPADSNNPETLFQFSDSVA
compound,measurement,setting,value
CN1CCN(c2ccc(Nc3ncc(C#N)c(Nc4ccccc4C(N)=O)n3)cc2)CC1.Cl [TCMDC-134116],Kd,RPS6KA5,393 nM and 590 nM
same,Kd,MAP4K2,648 nM
same,Kd,STK38,306 nM and 253 nM
same,Kd,PIP4K2C,691 nM and 713 nM
Cl.NCC1(c2nc(-c3ccc(Cl)c(O)c3)c(-c3ccncc3)[nH]2)CCCCC1 [TCMDC-141154],Kd,TAOK3,1190 nM and 603 nM
CN(C)CC(O)COc1ccc(Nc2ncc([N+](=O)[O-])c(Nc3ccccc3O)n2)cc1.O=C(O)C(F)(F)F (stereo not drawn) [TCMDC-141399],Kd,CDK10,630 nM
